Test results reported in article PMC11198769, “Enhancement of transcription efficiency by TAR-Tat system increases the functional expression of human olfactory receptors” (PLOS ONE, 2024).
Read-outs that look alike come from different tables or passages of the source.

What was measured:
OR2W1 [1] = target: T1, OR2W1 (Homo sapiens, UniProt Q9Y3N9); design: method as in PMID 19261596; conditions: read-out: EC50 value of n-hexanal for OR2W1 reported in a previous study; cited from earlier work
T1 construct: Lucy tag (N); FLAG (N); Rho tag (N); expressed in transfected cells; host or cells: Flp-In T-REx-293 cells stably expressing RTP1S, Gαolf and Ric8-b
T1 sequence (Q9Y3N9 1-320): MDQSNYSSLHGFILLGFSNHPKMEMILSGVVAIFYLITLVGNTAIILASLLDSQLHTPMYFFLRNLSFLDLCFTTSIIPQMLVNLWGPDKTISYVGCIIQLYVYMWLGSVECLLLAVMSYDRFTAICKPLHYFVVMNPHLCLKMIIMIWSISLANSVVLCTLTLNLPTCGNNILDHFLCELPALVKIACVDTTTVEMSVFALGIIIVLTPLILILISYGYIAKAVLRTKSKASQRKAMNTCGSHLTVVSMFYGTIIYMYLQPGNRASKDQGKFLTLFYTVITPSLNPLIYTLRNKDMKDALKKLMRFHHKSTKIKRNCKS

OR2W1 [2] = target: T1, OR2W1; assay: hOR assay (GloSensor cAMP luciferase), dose-response; assay type: cell-based; conditions: for EC50: read-out: EC50 of n-hexanal concentration-response relationship
Procedure: (§1) Flp-In T-REx-293 cells stably expressing accessory proteins (RTP1S, Gαolf, and Ric8-b) were established using the Flp-In T-REx system. Accessory proteins-expressing cells were maintained in high-glucose Dulbecco’s modified Eagle medium (Sigma-Aldrich) containing 10% fetal bovine serum (Biowest) and 1% antibiotic–antimycotic (Nacalai tesque) at 37°C with 5% CO2.
(§2) The GloSensor™ Technology (Promega) was used for the luciferase assay of the hOR response. As the negative control, cells that were transfected by the pBApo-CMV neo vector and pHEK293 Ultra Expression Vector I were used as mock cells. hOR/pHEK and hOR/pBApo (50 ng/well) were transfected into the accessory proteins-expressing cell line (40000 cells/well) using Lipofectamine 2000 (Thermo Fisher Scientific) (400 nL/well) along with pGlosensor™-22F cAMP biosensor plasmid (Promega) (50 ng/well) in a 96-well plate. At 28 h posttransfection, the cells were washed with an assay buffer (140 mM NaCl, 10 mM HEPES, 5 mM KCl, 1 mM CaCl2・2H2O, 10 mM D-glucose, pH 7.5) and replaced with the assay buffer (50 μL/well) containing 2% GloSensor cAMP substrate and preincubated for 1 h at 25°C. Then, the assay buffer was added (130 μL/well). After 10 min of equilibration, the luminescence was measured (L0). Odorants diluted in 10% DMSO/assay buffer were treated (20 μL/well). After 9 min, the luminescence was measured (L9min). First, all the L9min values were subtracted by the L0 value (ΔL) and divided by the L0 value (ΔL/L0). The concentration range of the odorants was different for each odorant, but the minimum was 0.01 μM and the maximum was 3 mM. For all hORs, luciferase assays with hOR/pBApo and hOR/pHEK were conducted in the same 96-well plate each time, and luminescence was normalized to a maximum value of 100. Dose–response curve images were graphed using the Graph Pad Prism 9 software (Graph Pad Software).

OR10C1 = target: T2, OR10C1 (Homo sapiens, UniProt Q96KK4); assay: as above; assay type: cell-based; conditions: OR10C1, with or without the TAR-Tat system
T2 construct: Lucy tag (N); expressed in transfected cells; host or cells: Flp-In T-REx-293 cells stably expressing RTP1S, Gαolf and Ric8-b
T2 sequence (Q96KK4 1-312): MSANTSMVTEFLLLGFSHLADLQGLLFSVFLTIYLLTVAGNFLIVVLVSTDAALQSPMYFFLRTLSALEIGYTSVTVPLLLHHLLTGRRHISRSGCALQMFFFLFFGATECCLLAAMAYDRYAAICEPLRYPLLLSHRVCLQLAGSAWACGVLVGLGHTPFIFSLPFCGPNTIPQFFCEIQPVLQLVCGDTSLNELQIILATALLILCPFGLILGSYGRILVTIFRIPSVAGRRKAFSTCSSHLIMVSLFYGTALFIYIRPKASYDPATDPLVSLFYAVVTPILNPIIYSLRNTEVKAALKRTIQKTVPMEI
Procedure: as §1, §2

OR5K1 = target: T3, OR5K1 (Homo sapiens, UniProt Q8NHB7); assay: as above; assay type: cell-based
T3 construct: Lucy tag (N); FLAG (N); Rho tag (N); expressed in transfected cells; host or cells: Flp-In T-REx-293 cells stably expressing RTP1S, Gαolf and Ric8-b
T3 sequence (Q8NHB7 1-308): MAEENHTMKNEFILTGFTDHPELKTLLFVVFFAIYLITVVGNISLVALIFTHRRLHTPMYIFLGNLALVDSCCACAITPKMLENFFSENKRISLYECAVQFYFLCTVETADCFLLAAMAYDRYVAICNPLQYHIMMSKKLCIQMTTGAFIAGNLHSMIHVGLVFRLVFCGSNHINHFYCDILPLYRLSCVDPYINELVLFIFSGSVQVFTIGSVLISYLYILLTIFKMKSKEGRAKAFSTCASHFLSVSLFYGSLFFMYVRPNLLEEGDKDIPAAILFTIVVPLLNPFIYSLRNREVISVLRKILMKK
Procedure: as §1, §2

OR56B1 = target: T4, OR56B1 (Homo sapiens, UniProt Q8NGI3); assay: as above; assay type: cell-based; conditions: OR56B1, with or without the TAR-Tat system
T4 construct: Lucy tag (N); expressed in transfected cells; host or cells: Flp-In T-REx-293 cells stably expressing RTP1S, Gαolf and Ric8-b
T4 sequence (Q8NGI3 1-324): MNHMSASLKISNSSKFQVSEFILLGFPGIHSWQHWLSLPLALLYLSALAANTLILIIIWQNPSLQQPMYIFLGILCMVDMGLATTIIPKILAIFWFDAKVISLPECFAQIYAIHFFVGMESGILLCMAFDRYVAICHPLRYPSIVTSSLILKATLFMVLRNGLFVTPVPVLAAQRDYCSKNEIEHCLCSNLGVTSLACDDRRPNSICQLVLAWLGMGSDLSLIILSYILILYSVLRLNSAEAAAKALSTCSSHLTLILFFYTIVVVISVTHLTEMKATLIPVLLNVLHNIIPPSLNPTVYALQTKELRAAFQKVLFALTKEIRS
Procedure: as §1, §2

OR10H3 = target: T5, OR10H3 (Homo sapiens, UniProt O60404); assay: as above; assay type: cell-based; conditions: OR10H3, with or without the TAR-Tat system
T5 construct: Lucy tag (N); expressed in transfected cells; host or cells: Flp-In T-REx-293 cells stably expressing RTP1S, Gαolf and Ric8-b
T5 sequence (O60404 1-316): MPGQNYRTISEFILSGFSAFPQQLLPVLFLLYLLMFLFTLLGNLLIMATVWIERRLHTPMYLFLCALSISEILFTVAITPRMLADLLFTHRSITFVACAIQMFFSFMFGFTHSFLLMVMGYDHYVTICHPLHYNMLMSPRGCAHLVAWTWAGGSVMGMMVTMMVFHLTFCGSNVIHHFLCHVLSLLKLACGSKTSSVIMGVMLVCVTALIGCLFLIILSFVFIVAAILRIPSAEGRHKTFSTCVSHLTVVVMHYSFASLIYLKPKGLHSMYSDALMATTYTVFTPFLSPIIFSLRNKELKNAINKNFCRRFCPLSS
Procedure: as §1, §2

CCCCCC=O [n-hexanal]
EC50 (OR2W1 [1]): 7.9 µM
concentration-dependent response to n-hexanal (OR2W1 [2]; OR2W1, with and without the TAR-Tat system): Concentration-dependent responses were observed
EC50 (OR2W1 [2]; OR2W1/pBApo (without TAR-Tat system)): 21 µM
EC50 (OR2W1 [2]; OR2W1/pHEK (with TAR-Tat system)): 60 µM
increase of maximum value of dose-response curve with the TAR-Tat system (OR2W1 [2]; OR2W1/pHEK versus OR2W1/pBApo): 2.0 fold
concentration-dependent response to n-hexanal (OR10C1): no concentration-dependent response
concentration-dependent response to n-hexanal (OR5K1; OR5K1, with and without the TAR-Tat system): concentration-dependent responses only with the TAR-Tat system
EC50 (OR5K1; OR5K1/pHEK (with TAR-Tat system), read-out: EC50 of n-hexanal concentration-response relationship): 11 µM
concentration-dependent response to n-hexanal (OR56B1): no concentration-dependent response
concentration-dependent response to n-hexanal (OR10H3): no concentration-dependent response
